Data published in patent US12480137B2, “Plants having increased tolerance to herbicides” (BASF SE, priority 2014, dated 2025).

Legend:
Assay type in all cases: in vivo, Arabidopsis thaliana
[1] = tested on: Cesa3_S1040L, fpx1-1 mutant line; test: Greenhouse phytotox, pre-emergent treatment
Experimental: (§1) Additionally, M2 or M3 Arabidopsis plants are tested for improved tolerance to cellulose biosynthesis-inhibiting herbicides in greenhouse studies (e. g. with the following cellulose biosynthesis-inhibiting herbicides: 6-cyclopentyl-N4-(2,3,4,5,6-pentafluorophenyl)-1,3,5-triazine-2,4-diamine; 6-(1-fluoro-1-methyl-ethyl)-N4-(2,3,4,5,6-pentafluorophenyl)-1,3,5-triazine-2,4-diamine; N4-(4-chloro-3,5,6-trifluoro-2-pyridyl)-6-(1-fluoro-1-methyl-ethyl)-1,3,5-triazine-2,4-diamine; 6-(2,6-difluorophenyl)-N4-(2,3,5,6-tetrafluorophenyl)-1,3,5-triazine-2,4-diamine; N4-(4-bromo-2,3,5,6-tetrafluoro-phenyl)-6-(1-fluoro-1-methyl-ethyl)-1,3,5-triazine-2,4-diamine.

[2] = tested on: Cesa3_S1037F, fpx1-2 mutant line; test: Greenhouse phytotox, pre-emergent treatment
Experimental: as §1

[3] = tested on: Cesa3_S983F, fpx1-3 mutant line; test: Greenhouse phytotox, pre-emergent treatment
Experimental: as §1

[4] = tested on: Cesa1_G1013R, fpx2-1 mutant line; test: Greenhouse phytotox, pre-emergent treatment
Experimental: as §1

A. thaliana WT L. erecta = test: Greenhouse phytotox, pre-emergent treatment
Experimental: as §1

[5] = tested on: Cesa1_G1009D, fpx2-3 mutant line; test: Greenhouse phytotox, pre-emergent treatment
Experimental: as §1

[6] = tested on: Cesa1_P1010L, fpx2-2 mutant line; test: Greenhouse phytotox, pre-emergent treatment
Experimental: as §1

[7] = tested on: Arabidopsis mutant line Cesa3_S983F; test: Growth inhibition of Arabidopsis lines in 48-well plates, tolerance factor from IC50; settings: growth inhibition seven to ten days after seeding
Excerpt: (§2) For selection of cellulose biosynthesis inhibitor resistant plants EMS mutagenized seed populations of Arabidopsis thaliana are used. EMS mutagenized seed populations are either bought from Lehle Seeds (1102 South Industrial Blvd. Suite D, Round Rock, Texas USA) or are generated as described elsewhere (Heim D R, et. al. (1989) Plant Physiol. 90: 146-150). Causative mutations in CESA wildtype sequences (e.g. SEQ ID NO: 1 or 3) are identified as described by Scheible W R et. al. (2001, Proc. Natl. Acad. of Sci. 98: 10079-10084), McCourt et. al. (WO2013/142968) or with the use of next generation sequencing methods as described by Austin R S, et. al. (2011) Plant Journal 67: 715-725.
(§3) Selected Arabidopsis thaliana lines were assayed for improved resistance to azines like 6-cyclopentyl-N4-(2,3,4,5,6-pentafluorophenyl)-1,3,5-triazine-2,4-diamine; 6-(1-fluoro-1-methyl-ethyl)-N4-(2,3,4,5,6-pentafluorophenyl)-1,3,5-triazine-2,4-diamine; 6-cyclohexyl-N2-(2,3,4,5,6-pentafluorophenyl)-1,3,5-triazine-2,4-diamine; 6-(2,6-difluorophenyl)-N2-(2,3,5,6-tetrafluorophenyl)-1,3,5-triazine-2,4-diamine; N2-(4-chloro-3,5,6-trifluoro-2-pyridyl)-6-(1-fluoro-1-methyl-ethyl)-1,3,5-triazine-2,4-diamine in 48-well plates. Therefore, M2 or M3 seeds are surface sterilized by stirring for 5 min in ethanol+water (70+30 by volume), rinsing one time with ethanol+water (70+30 by volume) and two times with sterile, deionized water. The seeds are resuspended in 0.1% agar dissolved in water (w/v) Four to five seeds per well are plated on solid nutrient medium consisting of half-strength murashige skoog nutrient solution, pH 5.8 (Murashige and Skoog (1962) Physiologia Plantarum 15: 473-497). Compounds are dissolved in dimethylsulfoxid (DMSO) and added to the medium prior solidification (final DMSO concentration 0.1%). Multi well plates are incubated in a growth chamber at 22° C., 75% relative humidity and 110 μmol Phot*m^−2*s^−1 with 14:10 h light:dark photoperiod. Growth inhibition is evaluated seven to ten days after seeding in comparison to wild type plants. Tolerance factors are calculated based on IC50 values of growth inhibition of transformed versus non-transformed Arabidopsis plants (Table 3).

[8] = tested on: Arabidopsis mutant line Cesa1_P1010L; test: as above; settings: growth inhibition seven to ten days after seeding
Excerpt: as §2, §3

[9] = tested on: Arabidopsis mutant line Cesa3_S1037F; test: as above; settings: growth inhibition seven to ten days after seeding
Excerpt: as §2, §3

[10] = tested on: Arabidopsis mutant line Cesa1_G1013R; test: as above; settings: growth inhibition seven to ten days after seeding
Excerpt: as §2, §3

[11] = tested on: Arabidopsis mutant line Cesa1_G1009D; test: as above; settings: growth inhibition seven to ten days after seeding
Excerpt: as §2, §3

[12] = tested on: wildtype Arabidopsis plants; test: as above; settings: growth inhibition seven to ten days after seeding
Excerpt: as §2, §3

[13] = tested on: Arabidopsis mutant line Cesa3_S1040L; test: as above; settings: growth inhibition seven to ten days after seeding
Excerpt: as §2, §3

For `CC(C)(F)c1nc(N)nc(Nc2nc(F)c(F)c(Cl)c2F)n1` [N2-(4-chloro-3,5,6-trifluoro-2-pyridyl)-6-(1-fluoro-1-methyl-ethyl)-1,3,5-triazine-2,4-diamine], the “Phytotox value on a scale from 0-100 (100 is 100% damage)” value (from here on “Phytotox value … (100 is 100% damage)”) ([1]; 0.0625 g ai/ha) was 13, the “Phytotox value … (100 is 100% damage)” value ([1]; 0.25 g ai/ha) was 15 and the “Phytotox value … (100 is 100% damage)” value ([1]; 0.98 g ai/ha) was 78. The “Phytotox value … (100 is 100% damage)” value ([1]; 3.91 g ai/ha) was 53, the “Phytotox value … (100 is 100% damage)” value ([2]; 0.0625 g ai/ha) was 5 and the “Phytotox value … (100 is 100% damage)” value ([2]; 0.25 g ai/ha) was 15. For the same molecule, the “Phytotox value … (100 is 100% damage)” value ([2]; 0.98 g ai/ha) was 25, the “Phytotox value … (100 is 100% damage)” value ([2]; 3.91 g ai/ha) was 25 and the “Phytotox value … (100 is 100% damage)” value ([3]; 0.0625 g ai/ha) was 23. For the same molecule, the “Phytotox value … (100 is 100% damage)” value ([3]; 0.25 g ai/ha) was 55, the “Phytotox value … (100 is 100% damage)” value ([3]; 0.98 g ai/ha) was 48 and the “Phytotox value … (100 is 100% damage)” value ([3]; 3.91 g ai/ha) was 13. For the same molecule, the “Phytotox value … (100 is 100% damage)” value ([4]; 0.0625 g ai/ha) was 40, the “Phytotox value … (100 is 100% damage)” value ([4]; 0.25 g ai/ha) was 50 and the “Phytotox value … (100 is 100% damage)” value ([4]; 0.98 g ai/ha) was 70. For the same molecule, the “Phytotox value … (100 is 100% damage)” value ([4]; 3.91 g ai/ha) was 80, the “Phytotox value … (100 is 100% damage)” value (A. thaliana WT L. erecta; 0.0625 g ai/ha) was 45 and the “Phytotox value … (100 is 100% damage)” value (A. thaliana WT L. erecta; 0.25 g ai/ha) was 60. For the same molecule, the “Phytotox value … (100 is 100% damage)” value (A. thaliana WT L. erecta; 0.98 g ai/ha) was 83, the “Phytotox value … (100 is 100% damage)” value (A. thaliana WT L. erecta; 3.91 g ai/ha) was 99 and the “Phytotox value … (100 is 100% damage)” value ([5]; 0.0625 g ai/ha) was 30. The “Phytotox value … (100 is 100% damage)” value ([5]; 0.25 g ai/ha) was 43, the “Phytotox value … (100 is 100% damage)” value ([5]; 0.98 g ai/ha) was 93 and the “Phytotox value … (100 is 100% damage)” value ([5]; 3.91 g ai/ha) was 99. The “Phytotox value … (100 is 100% damage)” value ([6]; 0.0625 g ai/ha) was 50, the “Phytotox value … (100 is 100% damage)” value ([6]; 0.25 g ai/ha) was 25 and the “Phytotox value … (100 is 100% damage)” value ([6]; 0.98 g ai/ha) was 78. For the same molecule, the “Phytotox value … (100 is 100% damage)” value ([6]; 3.91 g ai/ha) was 98, the “Relative tolerance rate (wildtype = 1.0)” value [7] was 4 and the “Relative tolerance rate (wildtype = 1.0)” value [8] was 1. For the same molecule, the “Relative tolerance rate (wildtype = 1.0)” value [9] was 10, the “Relative tolerance rate (wildtype = 1.0)” value [10] was 10 and the “Relative tolerance rate (wildtype = 1.0)” value [11] was 1. For the same molecule, the “Relative tolerance rate (wildtype = 1.0)” value [12] was 1 and the “Relative tolerance rate (wildtype = 1.0)” value [13] was 4.
